Tests used:
B16F10 melanocyte = assay: Suppression of generation of melanin to the B16F10 melanocyte; type: cell-based, mouse; details: 72 hours; red light 20 μW/cm^2; absorbance at 405 nm
Method: The B16F10 melanocyte is a cell strain derived from a mouse, and is a cell secreting a black pigment that is called melanin. The B16F10 melanocyte used in the present Experimental Example was distributed from ATCC (American Type Culture Collection™), and used.
The B16F10 melanocyte was divided in the 2×10^6 concentration for each well on the 6-well plate, attached, and cultivated by irradiating red light in the culture medium of Experimental Example 1 for 72 hours. After cultivation for 72 hours, the cells were separated by trypsin-EDTA (ethylenediaminetetraacetic acid), the number of cells was measured, and centrifugation was performed to collect the cells. Quantification of melanin in the cell was performed by modifying the Lotan's method. […] Melanin extracted by adding 1N NaOH (10% dimethyl sulfoxide (DMSO)) to the filtrate of the cell obtained by centrifugation was dissolved, absorbance of melanin was measured by the microplate reader at 405 nm, and melanin was quantified to measure the melanin generation hindrance ratio (%) of the sample. […]
The melanin generation hindrance ratio (%) of the B16F10 melanocyte was calculated by the following Equation 4, and the result is described in the following Table 4. […]

[1] = system: proinflammatory cytokine (1L-1α); assay: Suppression of proinflammatory cytokine expression by irradiation of ultraviolet rays (ELISA); type: cell-based, human; details: after 10 mJ/cm^2 ultraviolet ray B; red light for 72 hours at 5 or 47.5 μW/cm^2
Method: 5×10^4 keratinocytes separated from the human epidermal tissue were put at a time on the 24-well test plate, and attached for 24 hours. Each well was washed by the PBS once, and 500 μl of the PBS was put on each well. After 10 mJ/cm^2 of ultraviolet rays were irradiated on the keratinocytes by using the ultraviolet ray B lamp, the PBS was taken out, and 350 μl of the cell cultivation medium (DMEM to which the […] was not added) was added. In addition, red light was irradiated in the culture medium of Experimental Example 1 for 72 hours to perform cultivation. 150 μl of cultivation supernatant was sampled to quantify proinflammatory cytokine (1L-1α) and thus judge the expression suppression effect of proinflammatory cytokine. The amount of proinflammatory cytokine was quantified by using the enzyme-linked immunosorbent assay, and ketoprofen known as the proinflammatory cytokine suppression material was used as the positive control group. The expression suppression ratio (%) of proinflammatory cytokine was calculated by the following Equation 7, and the result is described in the following Table 6.
Expression suppression ratio of […]

MMP-1 = assay: Suppression of generation of collagenase MMP-1 in fibroblast; type: cell-based, human; details: fibroblast supernatant; three days; red light 47.5 μW/cm^2; TGF-β 10 ng/ml
Method: (§1) The fibroblast (Korean Cell Line Bank, Korean) that was the human normal skin cell was inoculated on the 48-well microplate (Nunc™, Denmark) so that the number of cells was 1×10^6 for each well, cultivated in the DMEM medium (Sigma™, USA) under the condition of 37° C. for 24 hours, and cultivated by irradiating red light for three days in the culture medium of Experimental Example 1. In order to perform the comparative experiment, red light having the similar wavelength was irradiated for three days to perform cultivation, and TGF-β (10 ng/ml) known to have the effect of suppressing generation of collagenase MMP-1,2 was used as the positive control group. Cultivation was further performed for 48 hours in the culture medium having no light irradiation function to use the resulting fibroblast as the control group.
(§2) After cultivation, the supernatant liquid of each well was collected to measure the amount (ng/ml) of newly synthesized MMP-1,2 by using the MMP-1,2 analysis kit (Amersham™, USA), the MMP generation suppression ratio (%) was calculated according to the following Equation 2, and the result is described in the following Table 2.
(§3) MMP generation rate(%)=(Amount of MMP of the experimental group/Amount of MMP of the control group)×100 (Equation 2)

MMP-2 = assay: Suppression of generation of collagenase MMP-2 in fibroblast; type: cell-based, human; details: fibroblast supernatant; three days; red light 47.5 μW/cm^2; TGF-β 10 ng/ml
Method: as §1, §2, §3

HaCaT keratinocyte = assay: Cell regeneration, MTT assay on HaCaT keratinocyte; type: cell-based; details: three days cultivation, red light 47.5 μW/cm^2, TGF-β 10 ng/ml
Method: On the 24-well plate, the HaCaT keratinocyte (German Cancer Research Institute, Germany) was inoculated into the DMEM (Dulbecco™ Modified Eagle′ Medium) to which the 10% FBS (fetal bovine serum) was added in the density of 2×10^5 cells/well, and cultivated for one day in the humidified culture medium of 37° C. and 5% CO2. After exchanging with the serum-free DMEM, red light was irradiated for three days in the culture medium in which the aforementioned display device was installed to perform cultivation. In order to perform the comparative experiment, red light having the similar wavelength was irradiated for three days to perform cultivation, and TGF-β (transforming growth factor beta) (10 ng/ml), which is the material known to have a cell regeneration effect, was used as the positive control group. Further, cultivation was performed for three days in the culture medium having no light irradiation function to use the resulting keratinocyte as the control group. The degrees of generation of the cell were compared and evaluated by using the MTT (Microculture Tetrazolium) assay method, and the experimental result is described in the following Table 1.
In general, regeneration of the skin cell is measured by the activation rate of the cell, and the activation rate of the cell is proportional to the absorbance (at 570 nm) in Table 1. […]

[2] = system: procollagen type IC-peptide (PICP); assay: Improvement of synthesis of collagen (PICP) in fibroblast; type: cell-based, human; details: red light 47.5 μW/cm^2 for 24 hours or 72 hours; TGF-β 10 ng/ml
Method: The fibroblast that was the human normal […] cell was inoculated on the 48-well microplate so that the number of cells was 1×10^6 for each well, cultivated in the DMEM medium for 24 hours, and cultivated by irradiating red light in a predetermined quantity for one day and three days in the culture medium of Experimental Example 1. In order to perform the comparative experiment, TGF-β (10 ng/ml) known to have the collagen synthesis improvement effect was used as the positive control group, and cultivation was further performed for 48 hours in the culture medium having no red light irradiation function to use the resulting fibroblast as the control group.
After cultivation, the supernatant liquid of each well was collected to measure the amount of procollagen type IC-peptide (PICP) by using the collagen kit (Takara™, Japan) and thus measure the amount of synthesized collagen. The collagen biosynthesis increase ratio (%) was calculated according to the following Equation 3, and the result is described in the following Table 3.
Collagen biosynthesis increase ratio(%)=(Amount of collagen of the experimental group/[…])×100 (Equation 3)

Compound: Oc1ccc(O)cc1 [Comparative Example 10, hydroquinone]
- Melanin generation hindrance ratio (%) (B16F10 melanocyte): 73.1%

Compound: OC[C@H]1O[C@@H](Oc2ccc(O)cc2)[C@H](O)[C@@H](O)[C@@H]1O [Comparative Example 11, arbutin]
- Melanin generation hindrance ratio (%) (B16F10 melanocyte): 52.3%

Compound: CC(C(=O)O)c1cccc(C(=O)c2ccccc2)c1 (stereo not shown) [compound 12, ketoprofen]
- Expression suppression ratio of proinflammatory cytokine (%) [1]: 41.1%

Compound: TGF-β (transforming growth factor beta) [compound 3]
- MMP-1 generation suppression ratio (%) (MMP-1): 75.1%
- MMP-2 generation suppression ratio (%) (MMP-2): 76.2%
- Absorbance (at 570 nm) (HaCaT keratinocyte): 1.423
- Collagen biosynthesis increase ratio (%) [2]: 24.7%

From patent US20150310826A1, “DISPLAY DEVICE AND PHOTOTHERAPY METHOD USING THE SAME” (Samsung Display Co., Ltd., priority 2014, published 2015)
